Results on 50 compounds are retold here after patent US10124004B2, “Pyrido[3,4-d]pyrimidine derivative and pharmaceutically acceptable salt thereof” (Teijin Pharma Limited, priority 2015, dated 2018).

One assay deals with T1, CDK2/cyclin A2 (Homo sapiens, UniProt P24941).
T1 construct: purchased Carna Biosciences, Inc. QS S Assist CDK2/Cyclin A2_FP Kit
Kind of assay: Human CDK2/cyclin A2 inhibitory activity (QS S Assist CDK2/Cyclin A2_FP Kit, IMAP fluorescence polarization). The class given is biochemical. The following applies: Human CDK2/cyclin A2 inhibitory activity; read-out: CDK2 Activity symbol. The gist of the method:
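Kinase activity read as fluorescence polarization (485/535 nm) after phosphorylated fluorescent substrate binds IMAP reagent (30 min, RT, dark). Enzyme (2.5 ng/well) reacted 60 min at RT with ATP/substrate/metal in HEPES pH 7.4 buffer with Tween 20 and DTT; no-enzyme wells define 0% activity; IC50 by curve fit.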
(In general: In fluorescence polarisation assays a small probe gives low polarisation when free and higher when bound to something large.)

The target in a further assay is T2, CDK4/cyclin D3 (Homo sapiens, UniProt P11802).
T2 construct: purchased Carna Biosciences, Inc. QS S Assist CDK4/Cyclin D3_FP Kit
Kind of assay: Human CDK4/cyclin D3 inhibitory activity (QS S Assist CDK4/Cyclin D3_FP Kit, IMAP fluorescence polarization). The following applies: Human CDK4/cyclin D3 inhibitory activity; read-out: CDK4 Activity symbol. It counts as biochemical. The gist of the method: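 IMAP fluorescence-polarization kinase assay with kit ATP/substrate/metal mix and 12.5 to 25 ng/well enzyme in 20 mM HEPES pH 7.4, 0.01% Tween20, 2 mM DTT. Reaction ran 45 min at room temperature, then binding reagent was added for 30 min in the dark. IC50 was taken from dose-response fits of percent inhibition.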

Some results are limits rather than exact numbers.

T2 sequence (P11802 whole entry): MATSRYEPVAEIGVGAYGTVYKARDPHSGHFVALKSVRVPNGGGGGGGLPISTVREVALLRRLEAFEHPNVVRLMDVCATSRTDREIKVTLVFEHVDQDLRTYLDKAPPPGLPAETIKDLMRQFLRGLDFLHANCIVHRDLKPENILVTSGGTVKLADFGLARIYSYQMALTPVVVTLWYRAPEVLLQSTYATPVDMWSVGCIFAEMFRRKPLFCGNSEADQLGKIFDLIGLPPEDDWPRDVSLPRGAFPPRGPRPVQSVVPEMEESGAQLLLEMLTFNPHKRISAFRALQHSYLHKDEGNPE
T2 sequence (P30281 whole entry partner): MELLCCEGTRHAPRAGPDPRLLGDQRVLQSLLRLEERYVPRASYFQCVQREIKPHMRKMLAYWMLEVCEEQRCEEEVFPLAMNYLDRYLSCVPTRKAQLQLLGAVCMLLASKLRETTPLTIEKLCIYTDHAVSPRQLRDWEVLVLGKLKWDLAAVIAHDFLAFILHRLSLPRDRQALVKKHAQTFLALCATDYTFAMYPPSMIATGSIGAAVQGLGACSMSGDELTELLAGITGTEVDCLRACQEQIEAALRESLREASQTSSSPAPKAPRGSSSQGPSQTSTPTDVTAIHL

For `CC(C)Nc1nc(C(F)F)cc2cnc(Nc3ccc(CN4CCNC4=O)cn3)nc12` [Compound 213], the IC50 at CDK2/cyclin A2 is 10 to 100 nM; on CDK4/cyclin D3 it was less than 10 nM.
The like results for `CO[C@H](C)c1cc2cnc(Nc3ccc(N4CCOCC4)cn3)nc2c(NC(C)C)n1` [Compound 214] were, in that order, not below 100 nM and less than 10 nM.
The like results for `COCC(C)(C)Nc1nc([C@@H](C)O)cc2cnc(Nc3ccc(C4CCNCC4)cn3)nc12` [Compound 215] were, in that order, not below 100 nM and less than 10 nM.
The like results for `COCC(C)(C)Nc1nc([C@@H](C)O)cc2cnc(Nc3ccc(N4CCOCC4)nn3)nc12` [Compound 216] were, in that order, not below 100 nM and 10 to 100 nM.
As for `CC(C)Nc1nc(C(F)F)cc2cnc(Nc3ccc(C4CCNC(=O)C4)cn3)nc12` (stereo not shown) [Compound 218], the IC50 is 10 to 100 nM at CDK2/cyclin A2 and less than 10 nM at CDK4/cyclin D3.
The matching figures for `CC(C)Nc1nc(C(F)F)cc2cnc(Nc3ccc(CN4CCCNC4=O)cn3)nc12` [Compound 219]: 10 to 100 nM and less than 10 nM.
The like results for `COCC(C)(C)Nc1nc([C@@H](C)O)cc2cnc(Nc3ccc(CC(N)=O)cn3)nc12` [Compound 222] were, in that order, not below 100 nM and 10 to 100 nM.
The matching figures for `CO[C@H](C)c1cc2cnc(Nc3ccc(CCO)cn3)nc2c(NC(C)C)n1` [Compound 223]: not below 100 nM and less than 10 nM.
For `CO[C@H](C)c1cc2cnc(Nc3ccc(C4CCN(C(C)=O)CC4)cn3)nc2c(NC(C)C)n1` [Compound 224], the results for the IC50 on CDK2/cyclin A2 and on CDK4/cyclin D3 were not below 100 nM and less than 10 nM, respectively.
The like results for `COCC(C)(C)Nc1nc([C@@H](C)O)cc2cnc(Nc3ccc(C4CCN(C(C)=O)CC4)cn3)nc12` [Compound 225] were, in that order, not below 100 nM and less than 10 nM.
The like results for `CC(C)Nc1nc(C(F)F)cc2cnc(Nc3ccc(N4CCCC(O)C4)nn3)nc12` (stereo not shown) [Compound 226] were, in that order, 10 to 100 nM and less than 10 nM.
The like results for `CO[C@H](C)c1cc2cnc(Nc3ccc(OCCN(C)C)cn3)nc2c(NC(C)C)n1` [Compound 227] were, in that order, not below 100 nM and less than 10 nM.
With `COCC(C)(C)Nc1nc([C@@H](C)O)cc2cnc(Nc3ccc(CCO)cn3)nc12` [Compound 228], the IC50 is not below 100 nM at CDK2/cyclin A2 and 10 to 100 nM on CDK4/cyclin D3.
The matching figures for `CC(C)Nc1nc([C@@H](C)O)cc2cnc(Nc3ccc(CCCN4CCOCC4=O)cn3)nc12` [Compound 229]: not below 100 nM and less than 10 nM.
In the case of `CO[C@H](C)c1cc2cnc(Nc3ccc(CC(N)=O)cn3)nc2c(NC(C)C)n1` [Compound 231], the IC50 at CDK2/cyclin A2 was not below 100 nM; on CDK4/cyclin D3, 10 to 100 nM.
The matching figures for `CO[C@H](C)c1cc2cnc(Nc3ccc(C4CCNCC4)cn3)nc2c(NC(C)C)n1` [Compound 232]: not below 100 nM and less than 10 nM.
For `CC(C)Nc1nc([C@@H](C)O)cc2cnc(Nc3ccc(CN4CCOCC4)cn3)nc12` [Compound 233], the values for the IC50 at CDK2/cyclin A2 and at CDK4/cyclin D3 were not below 100 nM and less than 10 nM, respectively.
The like results for `CC(C)Nc1nc([C@@H](C)O)cc2cnc(Nc3ccc(CN4CCNC(=O)C4)cn3)nc12` [Compound 234] were, in that order, not below 100 nM and less than 10 nM.
With `COCC(C)(C)Nc1nc([C@@H](C)O)cc2cnc(Nc3ccc(NCCO)nn3)nc12` [Compound 235], the IC50 at CDK2/cyclin A2 was not below 100 nM; on CDK4/cyclin D3, 10 to 100 nM.
The like results for `CC(C)Nc1nc(C(F)F)cc2cnc(Nc3ccc(CN4CCC(C(=O)NS(C)(=O)=O)CC4)cn3)nc12` [Compound 236] were, in that order, 10 to 100 nM and less than 10 nM.
`CO[C@H](C)c1cc2cnc(Nc3ccc(CN4CCNCC4=O)cn3)nc2c(NC(C)C)n1` [Compound 237]: the IC50 on CDK2/cyclin A2 is not below 100 nM; on CDK4/cyclin D3, 10 to 100 nM.
As for `CC(C)Nc1nc([C@@H](C)O)c(Cl)c2cnc(Nc3ccc(CN4CCNCC4)cn3)nc12` [Compound 238], the IC50 at CDK2/cyclin A2 was not below 100 nM; at CDK4/cyclin D3, less than 10 nM.
In the case of `CCCN1CCN(Cc2ccc(Nc3ncc4cc([C@@H](C)OC)nc(NC(C)C)c4n3)nc2)CC1` [Compound 239], the IC50 at CDK2/cyclin A2 was not below 100 nM; on CDK4/cyclin D3, less than 10 nM.
Take `CCN1CCN(Cc2ccc(Nc3ncc4cc([C@@H](C)OC)nc(NC(C)C)c4n3)nc2)CC1` [Compound 240]: the IC50 was not below 100 nM at CDK2/cyclin A2 and less than 10 nM on CDK4/cyclin D3.
The like results for `COCCNCc1ccc(Nc2ncc3cc([C@@H](C)O)nc(NC(C)C)c3n2)nc1` [Compound 241] were, in that order, not below 100 nM and less than 10 nM.
The like results for `COCCNCc1ccc(Nc2ncc3cc([C@@H](C)O)nc(NC(C)(C)COC)c3n2)nc1` [Compound 242] were, in that order, not below 100 nM and 10 to 100 nM.
The matching figures for `CCCN1CCN(Cc2ccc(Nc3ncc4cc([C@@H](C)O)nc(NC(C)(C)COC)c4n3)nc2)CC1` [Compound 243]: not below 100 nM and less than 10 nM.
In the case of `CCN1CCN(Cc2ccc(Nc3ncc4cc([C@@H](C)O)nc(NC(C)(C)COC)c4n3)nc2)CC1` [Compound 244], the IC50 on CDK2/cyclin A2 is not below 100 nM; on CDK4/cyclin D3, less than 10 nM.
The like results for `CC(C)Nc1nc([C@@H](C)O)cc2cnc(Nc3ccc(OCCN(C)C)cn3)nc12` [Compound 245] were, in that order, not below 100 nM and less than 10 nM.
The like results for `CO[C@H](C)c1cc2cnc(Nc3ccc(CN4CCNCC4)nn3)nc2c(NC(C)C)n1` [Compound 246] were, in that order, not below 100 nM and less than 10 nM.
The like results for `CC(C)Nc1nc([C@@H](C)O)c(Cl)c2cnc(Nc3ccc(N4CCNCC4=O)cn3)nc12` [Compound 247] were, in that order, not below 100 nM and less than 10 nM.
Take `COCC(C)(C)Nc1nc([C@@H](C)O)cc2cnc(Nc3ccc(CN4CCNCC4=O)cn3)nc12` [Compound 248]: the IC50 at CDK2/cyclin A2 was not below 100 nM; at CDK4/cyclin D3 it was 10 to 100 nM.
The matching figures for `CO[C@H](C)c1cc2cnc(Nc3ccc(N4CCN(CCO)CC4)nn3)nc2c(NC(C)C)n1` [Compound 249]: not below 100 nM and less than 10 nM.
As to `C[C@@H](O)c1cc2cnc(Nc3ccc(N4CCNCC4)nn3)nc2c(NC2CCOCC2)n1` [Compound 250], the IC50 at CDK2/cyclin A2 was not below 100 nM; at CDK4/cyclin D3, less than 10 nM.
The like results for `C[C@@H](O)c1cc2cnc(Nc3ccc(N4CCNCC4)nn3)nc2c(N[C@H]2CCOC2)n1` [Compound 251] were, in that order, not below 100 nM and less than 10 nM.
Consider `C[C@@H](O)c1cc2cnc(Nc3ccc(N4CCNCC4)nn3)nc2c(N[C@@H]2CCOC2)n1` [Compound 252], for which the figures for the IC50 at CDK2/cyclin A2 and at CDK4/cyclin D3 were not below 100 nM and less than 10 nM, respectively.
The like results for `C[C@@H](O)c1cc2cnc(Nc3ccc(N4CCNCC4)nn3)nc2c(N[C@H]2CCCOC2)n1` [Compound 253] were, in that order, not below 100 nM and less than 10 nM.
The like results for `C[C@@H](O)c1cc2cnc(Nc3ccc(N4CCNCC4)nn3)nc2c(N[C@@H]2CCCOC2)n1` [Compound 254] were, in that order, not below 100 nM and less than 10 nM.
The like results for `C[C@@H](O)c1cc2cnc(Nc3ccc(CN4CCNCC4)cn3)nc2c(NC2CCOCC2)n1` [Compound 255] were, in that order, not below 100 nM and less than 10 nM.
For `C[C@@H](O)c1cc2cnc(Nc3ccc(CN4CCNCC4)cn3)nc2c(N[C@H]2CCCOC2)n1` [Compound 256], the IC50 at CDK2/cyclin A2 is not below 100 nM; on CDK4/cyclin D3 it was less than 10 nM.
Consider `C[C@@H](O)c1cc2cnc(Nc3ccc(CN4CCNCC4)cn3)nc2c(N[C@@H]2CCCOC2)n1` [Compound 257], for which the IC50 at CDK2/cyclin A2 is not below 100 nM; at CDK4/cyclin D3, less than 10 nM.
The matching figures for `C[C@@H](O)c1cc2cnc(Nc3ccc(CN4CCNCC4)cn3)nc2c(N[C@H]2CCOC2)n1` [Compound 258]: not below 100 nM and less than 10 nM.
With `C[C@@H](O)c1cc2cnc(Nc3ccc(CN4CCNCC4)cn3)nc2c(N[C@@H]2CCOC2)n1` [Compound 259], the values for the IC50 at CDK2/cyclin A2 and at CDK4/cyclin D3 were not below 100 nM and less than 10 nM, respectively.
The matching figures for `CC(C)Nc1nc([C@@H](C)O)cc2cnc(Nc3ccc(N4CCC(O)CC4)nn3)nc12` [Compound 260]: not below 100 nM and less than 10 nM.
Take `CC(C)Nc1nc([C@@H](C)O)cc2cnc(Nc3ccc(N4CCNCC4)nn3)nc12` [Compound 261, (R)-1-(8-(isopropylamino)-2-((6-(piperazin-1-yl)pyridazin-3-yl)amino)pyrido[3,4-d]pyrimidin-6-yl)ethanol]: the IC50 was not below 100 nM at CDK2/cyclin A2 and less than 10 nM on CDK4/cyclin D3.
The like results for `CC(C)Nc1nc([C@@H](C)O)cc2cnc(Nc3ccc(CN4CCNCC4=O)cn3)nc12` [Compound 262] were, in that order, not below 100 nM and 10 to 100 nM.
The like results for `CNCC(C)(C)c1ccc(Nc2ncc3cc([C@@H](C)O)nc(NC(C)C)c3n2)nc1` [Compound 263] were, in that order, not below 100 nM and less than 10 nM.
The matching figures for `CNCC(C)(C)c1ccc(Nc2ncc3cc([C@@H](C)O)nc(NC(C)(C)COC)c3n2)nc1` [Compound 264]: not below 100 nM and less than 10 nM.
In the case of `COCC(C)(C)Nc1nc([C@@H](C)O)cc2cnc(Nc3ccc(C(C)N4CCNCC4)cn3)nc12` (stereo partly shown) [Compound 265], the IC50 on CDK2/cyclin A2 was not below 100 nM; at CDK4/cyclin D3, less than 10 nM.
The matching figures for `CO[C@H](C)c1cc2cnc(Nc3ccc(C(C)N4CCNCC4)cn3)nc2c(NC(C)C)n1` (stereo partly shown) [Compound 266]: not below 100 nM and less than 10 nM.
